Measurements taken from US4794114A, “Inhibition of interleukin-1 production by monocytes and/or macrophages” (SmithKline Beckman Corporation, priority 1987, dated 1988).
pIC50: −log10 of the molar value. Read-outs that look alike come from different tables or passages of the source.

What was measured:
[1] = tested on: IL-1 production by human monocytes; test: in vitro IL-1 production by LPS-stimulated human peripheral blood monocytes (EL-4 readout); format: cell-based; settings: for pIC50: 1 ng/ml LPS, 1 hr pretreatment; for inhibition at 1 µM: 10^-6 M
Procedure: The effects of antiinflammatory/antiarthritic drugs of different classes, including Compound 1 on the in vitro production of IL-1 by human monocytes was examined.
(§1) Bacterial lipopolysaccharide (LPS) was used to induce IL-1 production by human peripheral blood monocytes. IL-1 activity was measured by its ability to stimulate a Interleukin 2 (IL-2) producing cell line (EL-4) to secrete IL-2, in concert with A23187 ionophore, according to the method of Simon et al., J. Immunol. Methods, 84, 85, (1985). Human peripheral blood monocytes were isolated and purified from either fresh blood preparations from volunteer donors, or from blood Bank buffy coats, according to the procedure of Colotta et al., J. Immunol., 132, 936 (1984). 1×10^6 of such monocytes are plated in 24-well plates at a concentration of 2 million/ml per well. The cells were allowed to adhere for 2 hours, after which time non-adherent cells were removed by gentle washing. Test compounds were then added to the cells for 1 hour (hr) before the addition of lipopolysaccharide (10 ng/ml unless otherwise noted), and the cultures were incubated at 37° C. for an additional 24 hours. At the end of the incubation period, culture supernatants were removed and clarified of cells and all debris. Culture supernatants were immediately assayed for IL-1 biological activity as well as prostaglandin and/or leukotriene concentrations by radioimmunoassay.
^(a) All compounds, except chloroquine, were dissolved in absolute
ethanol at 10^-2 M, which was subsequently diluted further in tissue
assay system at doses tested. Furthermore, test samples were dialyzed
prior to testing in the IL1 assay.
In order to elucidate the mechanism by which Compound 1 mediates its anti-inflammatory activity, the ability of this compound and two closely related analog metabolites, (i.e., the analogs of Compound 1 wherein X is S(0)n and n is 1 or 2) to inhibit human IL-1 production in vitro was evaluated according to the method of Example 1. Briefly, 1×10^6 human peripheral blood monocytes were plated in 24-well plates and allowed to adhere for 1 hr at 37° C. The above compounds were added to a final concentration of 10^-5 M to 10^-8 M. The monocytes were stimulated to produce IL-1 with 1 ng/ml LPS after a 1 hr pretreatment of the cells with the respective compounds.
The inhibitory effect of additional compounds of Formula (I) on the in vitro production of IL-1 production of IL-1 by human monocytes was determined according to the procedure of Examples 1 and 2.

[2] = tested on: adjuvant-induced arthritis in the rat; test: adjuvant-induced arthritis in the rat: right leg paw edema; format: in vivo; settings: mg/kg: Compound 1 60, indomethacin 2.0, prednisolone 10, methotrexate 0.3, D-penicillamine 50
Procedure: (§2) Adjuvant-induced arthritis in the rat is a model of systemic inflammation with characteristics similar to rheumatoid arthritis in man. […] This model was employed to assess the effect of Compound 1 in vivo on this elevated IL-1 production. Briefly, rats were injected on day 0 with Freund's complete adjuvant in the right hind leg. Drugs were prepared as a suspension in tragacanth and administered daily per os either prophylactically (days 1 to 16) or therapeutically in a short-term modality (days 14 to 16). In all cases, final administration of drug occurred at 3 hours prior to sacrifice. Spleens were removed from these rats and the adherent cells were assessed for their ability to produce IL-1 in vitro in response to stimulation by LPS.
(§3) PROPHYLACTIC TREATMENT: Drugs were administered daily p.o. as a suspensio
(§4) in tragacanth from day 1 to day 16. Final dose given 3 hrs before
(§5) TREATMENT: Drugs were administered daily p.o. as above from
(§6) day 14 to day 16. Final dose given 3 hrs before sacrifice.
(§7) ***P < 0.01 Indomethacin 2.0 mg/kg
(§8) **P < 0.05 Compound 1 60 mg/kg
(§9) *P < 0.10 Prednisolone 10 mg/kg
(§10) D-Penicillamine 50 mg/kg

splenic adherent cells = test: adjuvant-induced arthritis in the rat: % splenic adherent cells; format: in vivo; settings: mg/kg: Compound 1 60, indomethacin 2.0, prednisolone 10, methotrexate 0.3, D-penicillamine 50
Procedure: as §2, §3, §4, §5, §6, §7, §8, §9, §10

[3] = tested on: IL-1 production by splenic adherent cells; test: adjuvant-induced arthritis in the rat: IL-1 production by LPS-stimulated splenic adherent cells; format: in vivo; settings: for IL-1 Production (splenic adherent cells), % normal control: mg/kg: Compound 1 60, indomethacin 2.0, prednisolone 10, methotrexate 0.3, D-penicillamine 50; for effect in adjuvant arthritic rats: short-term treatment
Procedure: as §2, §3, §4, §5, §6, §7, §8, §9, §10

PGE2 = test: in vitro prostaglandin (PGE2) synthesis by LPS-stimulated human monocytes, RIA; format: cell-based
Procedure: as §1
^(c) PGE2 was assayed using an RIA kit.

[4] = Homo sapiens, Monocyte, Table 3, read-out: % Inhibition @ 10^-6 M
[5] = prophylactic, daily p.o. days 1-16
[6] = therapeutic, daily p.o. days 14-16

SMILES	inhibition at 1 µM [1, 4] [%]	Right leg paw edema, % normal control [2, 5] [% normal control]	Right leg paw edema, % normal control [2, 6] [% normal control]	% Adherent Cells (splenic), % normal control (splenic adherent cells; [5]) [% normal control]	% Adherent Cells (splenic), % normal control (splenic adherent cells; [6]) [% normal control]	IL-1 Production (splenic adherent cells), % normal control [3, 5] [% normal control]	IL-1 Production (splenic adherent cells), % normal control [3, 6] [% normal control]	effect in adjuvant arthritic rats ([3]; therapeutic)	further results
[O-][S+]1CCn2c1nc(-c1ccc(F)cc1)c2-c1ccncc1 (centres unmarked) [Compound 2]	56	–	–	–	–	–	–	–	pIC50 ([1]; Homo sapiens, Monocyte): 6.10
O=S1(=O)CCn2c1nc(-c1ccc(F)cc1)c2-c1ccncc1 [Compound 3]	54	–	–	–	–	–	–	–	pIC50 ([1]; Homo sapiens, Monocyte): 6.21
Fc1ccc(-c2c(-c3ccncc3)nc3n2CCS3)cc1 [Compound 4]	46	–	–	–	–	–	–	–	–
COc1ccc(-c2nc3n(c2-c2ccncc2)CCS3)cc1 [Compound 6]	64	–	–	–	–	–	–	–	–
COc1ccc(-c2nc3n(c2-c2ccncc2)CCC3)cc1 [Compound 7]	40	–	–	–	–	–	–	–	–
COc1ccc(-c2nc3n(c2-c2ccncc2)CCCC3)cc1 [Compound 8]	30	–	–	–	–	–	–	–	–
CC(C)(S)[C@@H](N)C(=O)O [D-PENICILLAMINE, d-penicillamine]	–	184 ± 20	191 ± 13	372 ± 117	217 ± 6	336 ± 170	374	no effect	–
COc1ccc2c(c1)c(CC(=O)O)c(C)n2C(=O)c1ccc(Cl)cc1 [INDOMETHACIN, indomethacin]	–	113 ± 8	145 ± 18	480 ± 189	394 ± 253	274 ± 100	330 ± 121	no effect	–
CC(C)Cc1ccc(C(C)C(=O)O)cc1 (centres unmarked) [Ibuprofen, ibuprofen]	–	–	–	–	–	–	–	–	inhibition of IL-1 production [1]: virtually no effect on IL-1 production; inhibition at 10 µM ([1]; Homo sapiens, Monocyte, 10^-5 M, read-out: % Inhibition IL-1): 9%; inhibition at 1 µM ([1]; Homo sapiens, Monocyte, read-out: % Inhibition IL-1): 0%; inhibition at 0.1 µM ([1]; Homo sapiens, Monocyte, 10^-7 M, read-out: % Inhibition IL-1): 0%; inhibition of prostaglandin synthesis (PGE2): highly active in inhibiting prostaglandin synthesis; inhibition at 10 µM (PGE2; Homo sapiens, Monocyte, 10^-5 M, read-out: % Inhibition PGE2): 97%; inhibition at 1 µM (PGE2; Homo sapiens, Monocyte, 10^-6 M, read-out: % Inhibition PGE2): 71%; inhibition at 0.1 µM (PGE2; Homo sapiens, Monocyte, 10^-7 M, read-out: % Inhibition PGE2): 63%
CN(Cc1cnc2nc(N)nc(N)c2n1)c1ccc(C(=O)N[C@@H](CCC(=O)O)C(=O)O)cc1 [METHOTREXATE, methotrexate]	–	96 ± 4	194 ± 2	134 ± 10	284 ± 175	67 ± 56	436 ± 178	no effect	–
C[C@]12C=CC(=O)C=C1CC[C@@H]1[C@@H]2[C@@H](O)C[C@@]2(C)[C@H]1CC[C@]2(O)C(=O)CO [PREDNISOLONE, Prednisolone]	–	125 ± 22	147 ± 18	184 ± 79	82 ± 47	168 ± 40	300 ± 280	–	–
CC(=O)OC[C@H]1O[C@@H]([S-])[C@H](OC(C)=O)[C@@H](OC(C)=O)[C@@H]1OC(C)=O.CCP(CC)CC.[Au+] [auranofin]	–	–	–	–	–	–	–	no effect	–
